Laboratory results as given in patent publication US20230081390A1, “INHIBITORS OF RAF KINASES” (Kinnate Biopharma Inc., priority 2019, published 2023).

Molecular target: human RAF1 (Homo sapiens, UniProt P04049)
Experiment: Protein kinase assay (33P-ATP filter binding), human RAF1, 10-dose IC50
Assay type: biochemical
Details: MEK1 (K97R) substrate 3 micromolar, ATP 10 micromolar, read-out: RAF-1 IC50
Experimental: In brief, for each reaction, kinase and substrate were mixed in a buffer containing 20 mM HEPES (pH 7.5), 10 mM MgCl2, 1 mM EGTA, 0.02% Brij35, 0.02 mg/mL BSA, 0.1 mM Na3VO4, 2 mM DTT, and […]. All compounds were solubilized in DMSO. Compounds were then added to each reaction mixture via acoustic dispense using an ECHO 550 nanoliter dispenser. For human RAF1 testing, human MEK1 (K97R) was used as a substrate at a concentration of 3 micromolar, with a final ATP concentration of 10 micromolar. […] Reactions were carried out at room temperature for 2 hr and spotted onto P81 ion exchange cellulose chromatography paper (Reaction Biology). […] The percent remaining kinase activity relative to a vehicle-containing (DMSO) kinase reaction was calculated for each kinase/inhibitor pair. IC50 values were calculated using Prism 5 (GraphPad).

Chain of human RAF1 (P04049 whole entry): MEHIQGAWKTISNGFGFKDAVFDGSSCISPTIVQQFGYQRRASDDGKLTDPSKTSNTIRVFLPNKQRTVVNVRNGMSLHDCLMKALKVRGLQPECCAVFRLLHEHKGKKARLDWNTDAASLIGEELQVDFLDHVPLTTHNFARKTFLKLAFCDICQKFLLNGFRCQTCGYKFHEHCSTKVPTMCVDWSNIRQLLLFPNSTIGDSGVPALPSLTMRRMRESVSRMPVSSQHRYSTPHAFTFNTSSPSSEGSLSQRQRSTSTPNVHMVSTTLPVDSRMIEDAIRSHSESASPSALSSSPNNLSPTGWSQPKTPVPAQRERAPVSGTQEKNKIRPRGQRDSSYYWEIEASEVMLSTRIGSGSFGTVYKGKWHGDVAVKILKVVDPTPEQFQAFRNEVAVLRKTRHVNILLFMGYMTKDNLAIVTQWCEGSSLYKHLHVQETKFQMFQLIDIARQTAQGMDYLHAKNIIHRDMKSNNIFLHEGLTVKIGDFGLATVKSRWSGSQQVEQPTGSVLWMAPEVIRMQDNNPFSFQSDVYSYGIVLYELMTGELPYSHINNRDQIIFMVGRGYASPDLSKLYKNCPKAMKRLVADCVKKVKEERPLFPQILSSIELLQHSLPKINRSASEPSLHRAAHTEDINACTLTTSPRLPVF

| Structure (SMILES) | IC50 [nM] |
| --- | --- |
| Cc1cc(F)c(NC(=O)N2CC3CCC3(C(F)(F)F)C2)cc1-c1cc(OCCO)nc(N2CCOCC2)c1 (single isomer, unassigned) [Example 82, N-[2-fluoro-5-[2-(2-hydroxyethoxy)-6-(morpholin-4-yl)pyridin-4-yl]-4-methylphenyl]-1-(trifluoromethyl)-3-azabicyclo[3.2.0]heptane-3-carboxamide] | < 10 |
| Cc1cc(F)c(NC(=O)N2CC3CCC3(C(F)(F)F)C2)cc1-c1cc(OCCO)nc(N2CCOCC2)c1 (single isomer, unassigned) [Example 83, N-[2-fluoro-5-[2-(2-hydroxyethoxy)-6-(morpholin-4-yl)pyridin-4-yl]-4-methylphenyl]-1-(trifluoromethyl)-3-azabicyclo[3.2.0]heptane-3-carboxamide] | < 10 |
| Cc1cc(F)c(NC(=O)N2CCC(C(C)C(F)(F)F)C2)cc1-c1cc(OCCO)nc(N2CCOCC2)c1 (single isomer, unassigned) [Example 101, N-[2-fluoro-5-[2-(2-hydroxyethoxy)-6-(morpholin-4-yl)pyridin-4-yl]-4-methylphenyl]-3-(1,1,1-trifluoropropan-2-yl)pyrrolidine-1-carboxamide] | < 10 |
| Cc1cc(F)c(NC(=O)N2CCC(C(C)C(F)(F)F)C2)cc1-c1cc(OCCO)nc(N2CCOCC2)c1 (single isomer, unassigned) [Example 102, N-[2-fluoro-5-[2-(2-hydroxyethoxy)-6-(morpholin-4-yl)pyridin-4-yl]-4-methylphenyl]-3-(1,1,1-trifluoropropan-2-yl)pyrrolidine-1-carboxamide] | < 10 |
| Cc1cc(F)c(NC(=O)N2CC[C@]3(C2)CC(F)(F)C3(F)F)cc1-c1cc(OCCO)nc(N2CCOCC2)c1 (single isomer, unassigned) [Example 105] | < 10 |
| Cc1cc(F)c(NC(=O)N2CC[C@@]3(C2)CC(F)(F)C3(F)F)cc1-c1cc(OCCO)nc(N2CCOCC2)c1 (single isomer, unassigned) [Example 106] | < 10 |
| Cc1cc(F)c(NC(=O)N2CCCC3C2C3C(F)(F)F)cc1-c1cc(OCCO)nc(N2CCOCC2)c1 (single isomer, unassigned) [Example 108, N-[2-fluoro-5-[2-(2-hydroxyethoxy)-6-(morpholin-4-yl)pyridin-4-yl]-4-methylphenyl]-7-(trifluoromethyl)-2-azabicyclo[4.1.0]heptane-2-carboxamide] | 1000 to 10000 |
| Cc1cc(F)c(NC(=O)N2CCCC3C2C3C(F)(F)F)cc1-c1cc(OCCO)nc(N2CCOCC2)c1 (single isomer, unassigned) [Example 109, N-[2-fluoro-5-[2-(2-hydroxyethoxy)-6-(morpholin-4-yl)pyridin-4-yl]-4-methylphenyl]-7-(trifluoromethyl)-2-azabicyclo[4.1.0]heptane-2-carboxamide] | < 10 |
| Cc1cc(F)c(NC(=O)N2CCCC3C2C3C(F)(F)F)cc1-c1cc(OCCO)nc(N2CCOCC2)c1 (single isomer, unassigned) [Example 110, N-[2-fluoro-5-[2-(2-hydroxyethoxy)-6-(morpholin-4-yl)pyridin-4-yl]-4-methylphenyl]-7-(trifluoromethyl)-2-azabicyclo[4.1.0]heptane-2-carboxamide] | < 10 |
| Cc1cc(F)c(NC(=O)N2CCCC3C2C3C(F)(F)F)cc1-c1cc(OCCO)nc(N2CCOCC2)c1 (single isomer, unassigned) [Example 111, N-[2-fluoro-5-[2-(2-hydroxyethoxy)-6-(morpholin-4-yl)pyridin-4-yl]-4-methylphenyl]-7-(trifluoromethyl)-2-aabicyclo[4.1.0]heptane-2-carboxamide] | < 10 |
| Cc1cc(F)c(NC(=O)N2CCOC(C(F)(F)F)C2C)cc1-c1cc(OCCO)nc(N2CCOCC2)c1 (single isomer, unassigned) [Example 113] | < 10 |
| Cc1ccc(NC(=O)N2CC[C@@H](C(F)(F)F)C2)cc1-c1cnc(OC2CCOCC2)c(N2CCOCC2)c1 (single isomer, unassigned) [Example 119] | < 10 |
| Cc1ccc(NC(=O)N2CC[C@H](C(F)(F)F)C2)cc1-c1cnc(OC2CCOCC2)c(N2CCOCC2)c1 (single isomer, unassigned) [Example 120] | < 10 |
| Cc1ccc(NC(=O)N2CCC3(CCC3(F)F)C2)cc1-c1cc(OCCO)nc(N2CCOCC2)c1 (single isomer, unassigned) [Example 121, 1,1-difluoro-N-[3-[2-(2-hydroxyethoxy)-6-(morpholin-4-yl)pyridin-4-yl]-4-methylphenyl]-6-azaspiro[3.4]octane-6-carboxamide] | < 10 |
| Cc1cc(F)c(NC(=O)N2CC[C@@H](CC(F)(F)F)C2)cc1-c1cc(O[C@H](C)CO)nc(N2CCOCC2)c1 (single isomer, unassigned) [Example 182] | < 10 |
| Cc1cc(F)c(NC(=O)N2CC[C@H](CC(F)(F)F)C2)cc1-c1cc(OC[C@@H](C)O)nc(N2CCOCC2)c1 (single isomer, unassigned) [Example 183] | < 10 |
| Cc1ccc(NC(=O)N2CC[C@@H](CC(F)(F)F)C2)cc1-c1cnc(OC2CCOCC2)c(N2CCOCC2)c1 (single isomer, unassigned) [Example 193] | < 10 |
| Cc1cc(F)c(NC(=O)N2CCC(CC(F)(F)F)C2)cc1-c1cc(OCCO)nc(N2CCOCC2)c1 (stereo in doubt) [Example 37, (3R)-N-[2-fluoro-5-[2-(2-hydroxyethoxy)-6-(morpholin-4-yl)pyridin-4-yl]-4-methylphenyl]-3-(2,2,2-trifluoroethyl)pyrrolidine-1-carboxamide] | < 10 |

The next lines start with the values.

| IC50 [nM] | Structure (SMILES) |
| --- | --- |
| < 10 | Cc1cc(F)c(NC(=O)N2CC[C@@H](C(F)(F)C(F)(F)F)C2)cc1-c1cc(OCCO)nc(N2CCOCC2)c1 (single isomer, unassigned) [Example 84] |
| < 10 | Cc1cc(F)c(NC(=O)N2CCC(C(F)(F)C(F)(F)F)C2)cc1-c1cc(OCCO)nc(N2CCOCC2)c1 (single isomer, unassigned) [Example 85] |
| < 10 | Cc1cc(F)c(NC(=O)N2CCC3(CCC3(F)F)C2)cc1-c1cc(OCCO)nc(N2CCOCC2)c1 (single isomer, unassigned) [Example 90, 1,1-difluoro-N-[2-fluoro-5-[2-(2-hydroxyethoxy)-6-(morpholin-4-yl)pyridin-4-yl]-4-methylphenyl]-6-azaspiro[3.4]octane-6-carboxamide] |
| < 10 | Cc1cc(F)c(NC(=O)N2CCC3(CCC3(F)F)C2)cc1-c1cc(OCCO)nc(N2CCOCC2)c1 (single isomer, unassigned) [Example 91, 1,1-difluoro-N-[2-fluoro-5-[2-(2-hydroxyethoxy)-6-(morpholin-4-yl)pyridin-4-yl]-4-methylphenyl]-6-azaspiro[3.4]octane-6-carboxamide] |
| < 10 | Cc1cc(F)c(NC(=O)N2CCC(C(C)C(F)(F)F)C2)cc1-c1cc(OCCO)nc(N2CCOCC2)c1 (single isomer, unassigned) [Example 100, N-[2-fluoro-5-[2-(2-hydroxyethoxy)-6-(morpholin-4-yl)pyridin-4-yl]-4-methylphenyl]-3-(1,1,1-trifluoropropan-2-yl)pyrrolidine-1-carboxamide] |
| < 10 | Cc1cc(F)c(NC(=O)N2CCC(C(C)C(F)(F)F)C2)cc1-c1cc(OCCO)nc(N2CCOCC2)c1 (single isomer, unassigned) [Example 103, N-[2-fluoro-5-[2-(2-hydroxyethoxy)-6-(morpholin-4-yl)pyridin-4-yl]-4-methylphenyl]-3-(1,1,1-trifluoropropan-2-yl)pyrrolidine-1-carboxamide] |
| < 10 | Cc1cc(F)c(NC(=O)N2CCOC(C(F)(F)F)C2C)cc1-c1cc(OCCO)nc(N2CCOCC2)c1 (single isomer, unassigned) [Example 112] |
| < 10 | Cc1ccc(NC(=O)N2CC[C@@H](SC(F)(F)F)C2)cc1-c1cc(OCCO)nc(N2CCOCC2)c1 (single isomer, unassigned) [Example 117] |
| < 10 | Cc1ccc(NC(=O)N2CC[C@H](SC(F)(F)F)C2)cc1-c1cc(OCCO)nc(N2CCOCC2)c1 (single isomer, unassigned) [Example 118] |
| < 10 | Cc1ccc(NC(=O)N2CCC3(CCC3(F)F)C2)cc1-c1cc(OCCO)nc(N2CCOCC2)c1 (single isomer, unassigned) [Example 122, 1,1-difluoro-N-[3-[2-(2-hydroxyethoxy)-6-(morpholin-4-yl)pyridin-4-yl]-4-methylphenyl]-6-azaspiro[3.4]octane-6-carboxamide] |
| < 10 | Cc1ccc(NC(=O)N2CC[C@@H](OC(F)(F)F)C2)cc1-c1cc(OCCO)nc(N2CCOCC2)c1 (single isomer, unassigned) [Example 124] |
| < 10 | Cc1cc(F)c(NC(=O)N2CC[C@H](CC(F)(F)F)C2)cc1-c1cc(O[C@H](C)CO)nc(N2CCOCC2)c1 (single isomer, unassigned) [Example 184] |
| < 10 | Cc1ccc(NC(=O)N2CC[C@H](CC(F)(F)F)C2)cc1-c1cnc(OC2CCOCC2)c(N2CCOCC2)c1 (single isomer, unassigned) [Example 194] |
| < 10 | CC(C#N)=C1CCN(C(=O)Nc2cc(-c3cc(OCCO)nc(N4CCOCC4)c3)c(C)cc2F)C1 (stereo in doubt) [Example 97, (3E)-3-(1-cyanoethylidene)-N-[2-fluoro-5-[2-(2-hydroxyethoxy)-6-(morpholin-4-yl)pyridin-4-yl]-4-methylphenyl]pyrrolidine-1-carboxamide] |
